Results reported in patent US8809627B2, “Plant isoflavone and isoflavanone O-methyltransferase genes” (The Samuel Roberts Noble Foundation, Inc., priority 2006, dated 2014).

Experiments:
MtIOMT3 = assay: OMT assays with purified recombinant MtIOMT3 (relative activity; HPLC/MS of products); format: biochemical, Medicago truncatula; details: 50 μM S-adenosyl methionine, 100 μM acceptor substrate; most converted substrate = 100%
Excerpt: (§1) Cloning of MtIOMT5 (corresponding to TC 100926, TIGR MtGI v.8) was as described previously (Liu et al., 2005). To obtain a full-length cDNA for MtIOMT2, specific primers designed based upon the M. truncatula genomic sequence were used to amplify the MtIOMT2 coding sequence from M. truncatula root cDNA. The amplified product was cloned into the pGEM®-T easy vector (Promega, Madison Wis.) and sequenced to confirm its identity. MtIOMTs were cloned into the pET28a vector (EMD Biosciences, Inc., San Diego, Calif.) using PCR-based amplification with primers designed to introduce EcoRI and XhoI restriction sites; BamHI and XhoI sites were used for cloning MtIOMT6 due to the presence of an internal EcoRI site in this particular cDNA. Because the EST for MtIOMT8 was missing a start codon, the primer designed to clone MtIOMT8 into pET28a contained an additional 2-nucleotide insertion to generate an ATG start site. All MtIOMTs were expressed as translational fusions to an N-terminal His-tag. Expression of MtIOMTs in E. coli BL21(DE3) and purification by Ni^2+-NTA chromatography were as described (Zubieta et al., 2001). Proteins were dialyzed against 20 mM Tris pH 8.0, 100 mM NaCl, 10% (v/v) glycerol, and 14 mM β-mercaptoethanol. Protein concentration was determined by Bradford assay using BSA as a standard (Bradford, 1976).
(§2) Reactions (200 μl) were performed in 0.1 M potassium phosphate, pH 7.4, 10% (w/v) sucrose, 14 mM β-mercaptoethanol with 10 μM protein, 0.5 mM S-adenosyl-L-methionine, and 80 μM phenolic substrates. All substrates were purchased from Indofine (Hillsborough, N.J.) except 6,7-dihydroxy-4′-methoxyisoflavone, dihydrodaidzein, and vestitol, which were purchased from Apin (Oxfordshire, UK). […] OMT assays were incubated at 30° C. for 2 h and extracted with ethyl acetate. Ethyl acetate extracts were dried under N2 and the resultant material was resuspended in 50-100 μl of methanol. Samples were analyzed on an Agilent 1100 HPLC, equipped with a quaternary pump (model #G1311A), a degasser (model #G1322A), an autosampler (model #G1313A), and a diode array detector (model #G1315A). Samples of 20 μl were applied to an ODS2 reverse-phase column (5 μm particle size, 4.6×250 mm) and eluted in 1% (v/v) phosphoric acid with an increasing gradient of acetonitrile (0-5 min, 25%; 5-35 min, 25-50%; 35-39 min, 50-100%) at a flow rate of 1 ml/min. To resolve the 4′-O-methylated and 7-O-methylated products of genistein, samples were applied to a Phenomenex SYNERGI Polar-RP 80 Å column (4 μm particle size, 4.6×250 mm) and eluted in water with an increasing gradient of acetonitrile (0-5 min, 20%; 5-17 min, 20-38%; 17-33 min, 38%; 33-45 min, 38-56%; 45-46 min, 56-100%) at a flow rate of 1 ml/min. Chiral chromatography was performed as described (Liu et al., 2005).
(§3) For determination of specific activities, reactions (100 μl) were performed in 0.1 M potassium phosphate, pH 7.4, 10% (w/v) sucrose, 14 mM β-mercaptoethanol with 0.2-μg protein, 50 μM S-adenosyl-L-methionine (0.025 μCi ^14C-SAM per reaction), and 100 μM substrate. Reactions were incubated at 30° C. for 15-25 min and stopped by addition of 4 μl of 1N HCl. Products were extracted into 500 μl of ethyl acetate and 400 μl was used for liquid scintillation counting.
(§4) An HP 1100 series II LC system (Hewlett-Packard, Palo Alto, Calif.) with a photodiode array detector was coupled to a Bruker Esquire ion-trap mass spectrometer (ITMS) equipped with an electrospray ionization source. A reverse phase, C18, 5 μm, 4.6×250 mm column (J. T. Baker, Phillipsburg, N.J.) was used for separations. The mobile phase consisted of 0.1% (v/v) acetic acid using linear gradients of 5-90% acetonitrile (v/v) in 70 min. The flow rate was 0.8 ml/min, and the temperature of the column was kept at 28° C. Both positive- and negative-ion mass spectra were acquired. […]

MsI7OMT = target: T1, MsI7OMT (Medicago sativa, UniProt O24529); assay: OMT assays with purified recombinant MsI7OMT (relative activity); format: biochemical; details: 50 μM S-adenosyl methionine, 100 μM acceptor substrate; most converted substrate = 100%
T1 sequence (O24529 1-352): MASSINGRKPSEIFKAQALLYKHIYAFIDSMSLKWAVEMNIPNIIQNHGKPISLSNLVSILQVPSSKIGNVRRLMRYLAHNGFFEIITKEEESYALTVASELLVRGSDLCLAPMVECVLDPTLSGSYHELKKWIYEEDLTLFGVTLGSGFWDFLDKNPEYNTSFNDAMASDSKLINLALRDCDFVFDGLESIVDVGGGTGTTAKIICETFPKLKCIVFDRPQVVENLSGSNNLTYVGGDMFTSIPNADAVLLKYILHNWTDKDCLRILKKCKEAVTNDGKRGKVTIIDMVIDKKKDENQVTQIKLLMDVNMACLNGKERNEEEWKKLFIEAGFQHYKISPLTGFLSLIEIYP
Excerpt: as §1, §2, §3

MtIOMT2 = assay: OMT assays with purified recombinant MtIOMT2 (relative activity; HPLC/MS of products); format: biochemical, Medicago truncatula; details: for Relative activity, MtIOMT2: 50 μM S-adenosyl methionine, 100 μM acceptor substrate, most converted substrate (daidzein) = 100%
Excerpt: as §1, §2, §3, §4

MtIOMT5 = target: T2, MtIOMT5 (Medicago truncatula, UniProt Q29U70); assay: OMT assays with purified recombinant MtIOMT5 (relative activity; HPLC/MS of products); format: biochemical; details: for Relative activity, MtIOMT5: 50 μM S-adenosyl methionine, 100 μM acceptor substrate, most converted substrate = 100%; for Position of methylation / reaction products, MtIOMT5: HPLC against standards, tandem MS
T2 construct: His-tag (N); made in house; host or cells: E. coli BL21(DE3)
T2 sequence (Q29U70 1-364): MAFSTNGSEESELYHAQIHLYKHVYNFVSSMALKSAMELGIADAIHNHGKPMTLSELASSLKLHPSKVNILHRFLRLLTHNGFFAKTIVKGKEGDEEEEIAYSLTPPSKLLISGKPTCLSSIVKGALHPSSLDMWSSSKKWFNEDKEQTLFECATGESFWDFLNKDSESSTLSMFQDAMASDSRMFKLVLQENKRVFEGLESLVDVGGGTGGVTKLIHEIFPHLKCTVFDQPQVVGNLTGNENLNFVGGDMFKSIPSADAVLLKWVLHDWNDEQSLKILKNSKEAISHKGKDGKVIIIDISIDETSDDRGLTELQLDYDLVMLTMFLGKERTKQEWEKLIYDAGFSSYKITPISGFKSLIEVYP
Excerpt: as §1, §2, §3, §4

MtIOMT6 = assay: OMT assays with purified recombinant MtIOMT6 (relative activity; HPLC/MS of products); format: biochemical, Medicago truncatula; details: 50 μM S-adenosyl methionine, 100 μM acceptor substrate; most converted substrate = 100%
Excerpt: as §1, §2, §3, §4

O=c1c(-c2ccc(O)cc2)coc2cc(O)ccc12 [Daidzein]
Relative activity, MtIOMT3 (MtIOMT3): ≦1%
Relative activity, MsI7OMT (MsI7OMT): 21.6%
Relative activity, MtIOMT2 (MtIOMT2): 100%
Relative activity, MtIOMT5 (MtIOMT5): 0%
Relative activity, MtIOMT6 (MtIOMT6): 0%

COc1cc2c(=O)c(-c3ccc(O)cc3)coc2cc1O [Glycitein]
Relative activity, MtIOMT3 (MtIOMT3): 51.6%
Relative activity, MsI7OMT (MsI7OMT): 100%
Relative activity, MtIOMT2 (MtIOMT2): 38.9%
Relative activity, MtIOMT5 (MtIOMT5): 0%
Relative activity, MtIOMT6 (MtIOMT6): 0%

O=c1oc2cc(O)ccc2c2oc3cc(O)ccc3c12 [Coumestrol]
Relative activity, MtIOMT3 (MtIOMT3): 0%
Relative activity, MsI7OMT (MsI7OMT): 0%
Efficiency of methylation by MtIOMT2 (in words) (MtIOMT2): low efficiency
Relative activity, MtIOMT2 (MtIOMT2): ≦1%
Relative activity, MtIOMT5 (MtIOMT5): 0%
Relative activity, MtIOMT6 (MtIOMT6): 0%

O=c1c(-c2ccc(O)cc2)coc2cc(O)c(O)cc12 [6,7,4′-trihydroxyisoflavone]
Relative activity, MtIOMT3 (MtIOMT3): 100%
Relative activity, MsI7OMT (MsI7OMT): 51.8%
Relative activity, MtIOMT2 (MtIOMT2): 35.3%
Relative activity, MtIOMT5 (MtIOMT5): 0%
Relative activity, MtIOMT6 (MtIOMT6): 0%

COc1ccc(-c2coc3cc(O)c(O)cc3c2=O)cc1 [6,7-dihydroxy,4′-methoxyisoflavone]
Relative activity, MtIOMT3 (MtIOMT3): 0%
Relative activity, MsI7OMT (MsI7OMT): ≦1%
Relative activity, MtIOMT2 (MtIOMT2): 0%
Relative activity, MtIOMT5 (MtIOMT5): 0%
Relative activity, MtIOMT6 (MtIOMT6): 0%

O=C1C[C@@H](c2ccc(O)cc2)Oc2cc(O)cc(O)c21 [Naringenin]
Relative activity, MtIOMT3 (MtIOMT3): 0%
Relative activity, MsI7OMT (MsI7OMT): 0%
Efficiency of methylation by MtIOMT2 (in words) (MtIOMT2): low efficiency
Relative activity, MtIOMT2 (MtIOMT2): ≦1%
Relative activity, MtIOMT5 (MtIOMT5): ≦1%
Position of methylation / reaction products, MtIOMT5 (MtIOMT5): methylated on the 4′-positions
Relative activity, MtIOMT6 (MtIOMT6): 0%

O=c1c(-c2ccc(O)c(O)c2)coc2cc(O)ccc12 [7,3′,4′-trihydroxyisoflavone]
Relative activity, MtIOMT3 (MtIOMT3): 52.9%
Relative activity, MsI7OMT (MsI7OMT): 47.1%
Relative activity, MtIOMT2 (MtIOMT2): 43.1%
Relative activity, MtIOMT5 (MtIOMT5): 0%
Relative activity, MtIOMT6 (MtIOMT6): 0%

O=C1c2ccc(O)cc2OCC1c1ccc(O)cc1 (stereo not shown) [Dihydrodaidzein]
Relative activity, MtIOMT3 (MtIOMT3): 49.4%
Relative activity, MsI7OMT (MsI7OMT): 12.8%
Relative activity, MtIOMT2 (MtIOMT2): 70.1%
Relative activity, MtIOMT5 (MtIOMT5): 7.9%
Position of methylation / reaction products, MtIOMT5 (MtIOMT5): 4′-methoxy, 7-methoxy, and 4′,7-dimethoxy products
Relative activity, MtIOMT6 (MtIOMT6): 100%

O=c1cc(-c2ccc(O)cc2)oc2cc(O)cc(O)c12 [Apigenin]
Relative activity, MtIOMT3 (MtIOMT3): 0%
Relative activity, MsI7OMT (MsI7OMT): 0%
Relative activity, MtIOMT2 (MtIOMT2): 0%
Relative activity, MtIOMT5 (MtIOMT5): 0%
Relative activity, MtIOMT6 (MtIOMT6): 0%

O=c1cc(-c2ccc(O)cc2)oc2cc(O)ccc12 [7,4′-dihydroxyflavone]
Relative activity, MtIOMT3 (MtIOMT3): 0%
Relative activity, MsI7OMT (MsI7OMT): 0%
Relative activity, MtIOMT2 (MtIOMT2): ≦1%
Relative activity, MtIOMT5 (MtIOMT5): 0%
Relative activity, MtIOMT6 (MtIOMT6): 0%

O=c1c(-c2ccc(O)cc2)coc2cc(O)cc(O)c12 [Genistein]
Relative activity, MtIOMT3 (MtIOMT3): 73.7%
Relative activity, MsI7OMT (MsI7OMT): 15%
Relative activity, MtIOMT2 (MtIOMT2): 61%
Relative activity, MtIOMT5 (MtIOMT5): 0%
Relative activity, MtIOMT6 (MtIOMT6): 0%

COc1ccc(C2COc3cc(O)ccc3C2)c(O)c1 (stereo not shown) [Vestitol]
Relative activity, MtIOMT3 (MtIOMT3): 0%
Relative activity, MsI7OMT (MsI7OMT): 0%
Efficiency of methylation by MtIOMT2 (in words) (MtIOMT2): low efficiency
Relative activity, MtIOMT2 (MtIOMT2): ≦1%
Relative activity, MtIOMT5 (MtIOMT5): ≦1%
Relative activity, MtIOMT6 (MtIOMT6): 66.2%

O=c1c(O)c(-c2cc(O)c(O)c(O)c2)oc2cc(O)cc(O)c12 [Myricetin]
Relative activity, MtIOMT3 (MtIOMT3): 0%
Relative activity, MsI7OMT (MsI7OMT): 0%
Relative activity, MtIOMT2 (MtIOMT2): 0%
Relative activity, MtIOMT5 (MtIOMT5): 0%
Relative activity, MtIOMT6 (MtIOMT6): 0%
